Where two headings read alike, the source gives them in different places.
Experiments:
[1] = molecular target: ^3H-MK6240 binding sites in the temporal cortex (Homo sapiens, UniProt P10636); assay: Competitive binding assay with ^3H-MK6240 (0.5 nM) on AD temporal cortex homogenates; conditions: for Fraction of sites with super-high affinity for the competitor (%): radioligand ^3H-MK6240, temporal cortex; for IC50: 2-site competition model, temporal cortex
Description: (§1) Frozen post-mortem tissue from eight AD and seven control brains from the Netherlands Brain Bank (NBB) was homogenized in phosphate buffer saline (PBS) with additional 0.1% bovine serum albumin (BSA; […]) and protease/phosphatase inhibitors (10 μL/mL).
Competitive binding assays with ^3H-MK6240 (0.5 nM) were carried out for 90 min at 37 °C on temporal cortex homogenates from two AD brains, in PBS + 0.1% BSA (pH 7.4), using increasing concentrations of unlabelled MK6240, unlabelled THK5117 or unlabelled AV-1451 (1.10^−14–1.10^−5 M). The binding assay was terminated as described above. The half-maximal […] concentration (IC50) was determined using GraphPad Prism software and data were analysed using a 2-site competition model.

AD tissue = conditions: ref [7], [21], cited from earlier work
[2] = tested on: ^18F-AV-1451 binding sites in AD brains; design: method as in Ni et al. (unpublished data); conditions: versus ^18F-AV-1451, ref Ni et al. (unpublished data), cited from earlier work
[3] = tested on: ^3H-THK5351 binding sites in the hippocampus; design: method as in Lemoine et al. [12]; conditions: ref Lemoine et al. [12], cited from earlier work; for Fraction of sites with super-high affinity for the competitor (%): radioligand ^3H-THK5351
[4] = tested on: ^3H-THK5351 binding sites in the hippocampus; assay: Competitive binding assay with ^3H-THK5351 (1.5 nM) on AD hippocampus homogenates; design: species or system human
Description: as §1
Competitive binding assays were also carried out with ^3H-THK5351 (1.5 nM) in PBS + 0.1% BSA (pH 7.4) on hippocampus homogenates, using increasing concentrations of unlabelled MK6240 (1.10^−14–1.10^−5 M) in PBS + 0.1% BSA for 2 h at room temperature.

[5] = tested on: ^3H-AV-1451 binding sites; design: method as in Hostetler et al. [21]; conditions: ref Hostetler et al. [21]; cited from earlier work
[6] = site 2, high affinity, read-out: IC50(High)
[7] = site 1, super-high affinity, read-out: IC50(supHigh)

Sequence of ^3H-MK6240 binding sites in the temporal cortex (P10636 623-695 limits assumed): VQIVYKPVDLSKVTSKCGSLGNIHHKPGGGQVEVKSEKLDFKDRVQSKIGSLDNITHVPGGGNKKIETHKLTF

| SMILES | High affinity sites, fraction ([1]; ^3H-MK6240 competitions) [%] | Fraction of sites with super-high affinity for the competitor (%) [1] [%] | IC50 [1, 6] [nM] | Kd (AD tissue; unit inferred) [nM] | Proportion of sites with high affinity for the competitor ([2]; frontal cortex) [%] | Proportion of sites with high affinity for the competitor ([2]; temporal cortex of AD brains) [%] | Low affinity sites, fraction ([3]; ^3H-THK5351 competitions) [%] | Fraction of sites with super-high affinity for the competitor (%) [3] [%] | IC50 [1, 7] [nM] | Fraction of sites with super-high affinity for the competitor (%) ([4]; radioligand ^3H-THK5351, hippocampus) | Competition with ^3H-THK5351 ([4]; unlabelled MK6240 1.10^-14-1.10^-5 M, hippocampus of three AD patients) | Competition with ^3H-AV-1451 [5] | Low affinity sites, fraction ([1]; ^3H-MK6240 competitions) [%] | IC50 ([1]; site 2, low affinity, read-out: IC50(low)) [nM] | Kd (AD tissue) [nM] | High affinity sites, fraction ([3]; ^3H-THK5351 competitions) [%] |
| --- | --- | --- | --- | --- | --- | --- | --- | --- | --- | --- | --- | --- | --- | --- | --- | --- |
| Fc1ccc(-c2ccc3c(c2)[nH]c2ccncc23)cn1 [AV-1451] | 26 | 74 | 2 | 0.6 to 3.7 | 61 | 88 | 65 | 35 |  |  |  |  |  |  |  |  |
| Nc1c(F)ccc2cnc(-n3ccc4ccncc43)cc12 [MK6240] | 42 | 58 | 12 |  |  |  |  |  | 0.001 | 0 | did not compete | lack of competition |  |  |  |  |
| CNc1ccc(-c2ccc3cc(OCC(O)CF)ccc3n2)cc1 (stereo not drawn) [THK5117] |  | 37 |  |  |  |  |  | 46 | 0.002 |  |  |  | 63 | 304 | 2.2 | 54 |
| CNc1ccc(-c2ccc3cc(OC[C@H](O)CF)ccc3n2)cn1 [THK5351] |  |  |  |  |  |  |  | 62 |  |  |  |  |  |  |  | 38 |

Source: publication PMC8041708, “Characterization of MK6240, a tau PET tracer, in autopsy brain tissue from Alzheimer’s disease cases” (European Journal of Nuclear Medicine and Molecular Imaging, 2020)
